target: T1, Aminopeptidase N (Escherichia coli K-12, UniProt P04825); experiment: Inhibitory activity against aminopeptidase N (PepN) from Escherichia coli
T1 sequence (P04825 whole entry): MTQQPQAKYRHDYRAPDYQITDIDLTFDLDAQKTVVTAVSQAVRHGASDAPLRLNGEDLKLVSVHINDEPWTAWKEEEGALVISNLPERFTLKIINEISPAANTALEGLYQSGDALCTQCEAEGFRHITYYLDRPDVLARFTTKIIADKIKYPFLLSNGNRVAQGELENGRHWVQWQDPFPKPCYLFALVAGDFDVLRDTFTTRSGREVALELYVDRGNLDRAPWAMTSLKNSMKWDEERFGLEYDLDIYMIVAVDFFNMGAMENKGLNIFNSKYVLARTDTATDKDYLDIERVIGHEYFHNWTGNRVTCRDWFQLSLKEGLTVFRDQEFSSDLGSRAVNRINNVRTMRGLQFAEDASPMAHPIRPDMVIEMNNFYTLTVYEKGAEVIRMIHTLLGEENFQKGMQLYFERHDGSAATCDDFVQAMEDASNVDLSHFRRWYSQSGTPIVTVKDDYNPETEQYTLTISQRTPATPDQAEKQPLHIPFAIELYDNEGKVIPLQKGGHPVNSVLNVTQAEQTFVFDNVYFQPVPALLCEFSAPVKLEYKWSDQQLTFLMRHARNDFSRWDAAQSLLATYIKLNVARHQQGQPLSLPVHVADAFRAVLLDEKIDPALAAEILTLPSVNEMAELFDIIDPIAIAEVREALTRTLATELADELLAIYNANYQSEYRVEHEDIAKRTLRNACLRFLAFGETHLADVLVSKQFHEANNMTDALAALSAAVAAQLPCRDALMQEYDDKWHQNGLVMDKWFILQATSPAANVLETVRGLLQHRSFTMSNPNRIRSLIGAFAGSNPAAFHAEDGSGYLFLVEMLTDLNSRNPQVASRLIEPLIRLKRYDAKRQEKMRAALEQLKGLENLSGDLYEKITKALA

| SMILES | Ki |
| --- | --- |
| CCCCCCCCC(CP(=O)(O)C(C)N)C(=O)O (stereo not given) | 1.1 µM |
| CC(NS(=O)(=O)C(C)N)C(=O)O (stereo not given) | > 300 µM |
| CC(CP(=O)(O)C(C)N)C(=O)O (stereo not given) | 10 µM |
| C/C(=C\P(=O)(O)C(C)N)C(=O)O (stereo not given) | 1 µM |
| CC(OS(=O)(=O)C(C)N)C(=O)O (stereo not given) | > 300 µM |

Reference: ChEMBL document CHEMBL1141201, “Phosphinate, sulfonate, and sulfonamidate dipeptides as potential inhibitors of Escherichia coli aminopeptidase N” (Bioorg Med Chem Lett, 2005)
